The source of these data is ChEMBL document CHEMBL2057148, “Synthesis of a Microcystis aeruginosa predicted metabolite with antimalarial activity” (Bioorg Med Chem Lett, 2012).

Test [1] deals with Plasmodium falciparum. In words: Antimalarial activity against chloroquine-resistant Plasmodium falciparum K1 infected in human A-positive type erythrocytes assessed as [3H]hypoxanthine incorporation after 24 hrs by scintillation counting. It counts as functional, organism-based.
Test [2] relates to Plasmodium falciparum. In words: Ratio of IC50 for aerucyclamide B to compound IC50 for chloroquine-resistant Plasmodium falciparum K1 infected in human A-positive type erythrocytes assessed as [3H]hypoxanthine incorporation after 24 hrs by scintillation counting. It counts as functional.

In the case of `CC[C@H](C)[C@@H]1NC(=O)c2csc(n2)[C@H]([C@@H](C)CC)NC(=O)c2csc(n2)CNC(=O)c2nc1oc2C` [MACROCYCLE], in the test on Plasmodium falciparum [1], the IC50 came out at 180 nM. For the same molecule, the “Ratio IC50” value in the test on Plasmodium falciparum [2] is 4.
